Test results from ChEMBL document CHEMBL1155632, “Sesquiterpenes from the basidiomycete Omphalotus illudens” (J Nat Prod, 2000).
Activity calls are given as the source filed them. The rule behind the calls is not given here.

Columns and labels:
[1] = test system: Bacillus subtilis; assay: Antibacterial activity against Bacillus subtilis ATCC 6633 at 10 ug/disk; type: functional, organism-based
[2] = test system: Staphylococcus aureus; assay: Antibacterial activity against Staphylococcus aureus ATCC 29213; type: functional, organism-based
[3] = test system: Pseudomonas aeruginosa; assay: Antibacterial activity against Pseudomonas aeruginosa ATCC 27853; type: functional, organism-based
[4] = test system: Candida albicans; assay: Antifungal activity against Candida albicans ATCC 32354; type: functional, organism-based
[5] = test system: Escherichia coli; assay: Genotoxicity against Escherichia coli PQ37 at 50 ug/disk; type: toxicity, organism-based

SMILES	Activity [1]	Activity [2]	Activity [3]	Activity [4]	Activity [5]
C/C(C=O)=C1\[C@@H](O)C[C@]1(C)[C@H]1CC(C)(C)C[C@@H]1O [ILLUDOSIN]	Active	inactive	inactive	inactive	Active
CC1(C)C[C@H]2[C@@H](CC[C@@]2(C)O)[C@]2(C)CC2[C@H]1OC(=O)c1cc([N+](=O)[O-])cc([N+](=O)[O-])c1 (stereo not given in full)	inactive	inactive	inactive	inactive	Not Active
C/C(C=O)=C1\C(=O)C[C@]1(C)[C@H]1CC(C)(C)CC1=O	inactive	inactive	inactive	inactive	Not Active
C/C(CO)=C1\[C@@H](O)C[C@]1(C)[C@H]1CC(C)(C)C[C@@H]1O	inactive	inactive	inactive	inactive	Not Active
